Assay results as given in PubChem BioAssay AID720616 (Broad Institute, 2013).

Tested on: U-251 glioblastoma viability, CellTiter-Glo ATP luminescence
Assay: U-251 glioblastoma cell viability loss, late-stage follow-up, mechanism study for HRAS target identification, CellTiter-Glo ATP luminescence, several timepoints, dry powder (AID 720616)

## Cc1onc(C(=O)N2CCN(C(c3ccc(Cl)cc3)c3ccc(Cl)cc3)CC2)c1[N+](=O)[O-]
Measured here: 24 h treatment
  AC50: > 70000 nM
Measured here: 48 h treatment
  AC50: > 70000 nM

## CC(C)(C)OC(=O)NCCOCCOCCOc1ccc(N(C(=O)CCl)C(C(=O)NCCc2ccccc2)c2cccs2)cc1Cl (centres undefined)
Measured here: 8 h treatment
  AC50: 912 nM
Measured here: 24 h treatment
  AC50: 1220 nM
Measured here: 48 h treatment
  AC50: 2210 nM

## COc1ccc(N(C(=O)CCl)C(C(=O)NCCc2ccccc2)c2cccs2)cc1Cl (centres undefined)
Measured here: 8 h treatment
  AC50: 734 nM
Measured here: 24 h treatment
  AC50: 709 nM
Measured here: 48 h treatment
  AC50: 1380 nM

## COC(=O)c1ccc([C@@H]2c3[nH]c4ccccc4c3C[C@@H](C(=O)OC)N2C(=O)CCl)cc1
Measured here: 8 h treatment
  AC50: 1100 nM
Measured here: 24 h treatment
  AC50: 856 nM
Measured here: 48 h treatment
  AC50: 1250 nM

## C#CCCCC(=O)NCCOCCOCCOc1ccc(N(C(=O)CCl)C(C(=O)NCCc2ccccc2)c2cccs2)cc1Cl (centres undefined)
Measured here: 8 h treatment
  AC50: 7550 nM
Measured here: 24 h treatment
  AC50: 4090 nM
Measured here: 48 h treatment
  AC50: 10200 nM
